Results published in patent publication US20240158446A1, “CYCLIC COMPOUND HAVING SELECTIVE INHIBITORY ACTION ON KRAS OVER HRAS AND NRAS” (CHUGAI SEIYAKU KABUSHIKI KAISHA, priority 2021, published 2024).
Where a SMILES comes first, the peptide text is derived from it. Bridges are numbered along the chain shown (N, C = ends). [ ]: non-standard residue; d: D form. The star is where a group is joined. hPhe(3-Cl-4-CF3) = N[C@@H](CCc1ccc(C(F)(F)F)c(Cl)c1)C(=O)O; NPrPhe(4-CF3) = CCCN[C@@H](Cc1ccc(C(F)(F)F)cc1)C(=O)O; NMeGly(cPent) = CN[C@H](C(=O)O)C1CCCC1; Pro(4,4-F2) = O=C(O)[C@@H]1CC(F)(F)CN1; Pro(4,4-Me2) = CC1(C)CN[C@H](C(=O)O)C1; Pro(4S-Me) = C[C@@H]1CN[C@H](C(=O)O)C1; NMeD = CN[C@@H](CC(=O)O)C(=O)O; NMeL = CN[C@@H](CC(C)C)C(=O)O; Morpholide = C1CN(*)CCO1; Ac5c = NC1(C(=O)O)CCCC1; Aze = O=C(O)[C@@H]1CCN1; Ac4c = NC1(C(=O)O)CCC1; Sar = CNCC(=O)O

How the values were obtained:
[1] = molecular target: GDP-bound NRAS wild-type protein (Homo sapiens, UniProt P01111); assay: Binding to NRAS by surface plasmon resonance (SPR), Single Cycle Kinetics; details: SPR, GDP-bound NRAS wild-type protein vs GDP-bound KRAS wild-type protein
[2] = molecular target: GDP-bound HRAS wild-type protein (Homo sapiens, UniProt P01112); assay: Binding to HRAS by surface plasmon resonance (SPR), Single Cycle Kinetics; details: SPR, GDP-bound HRAS wild-type protein vs GDP-bound KRAS wild-type protein
[3] = system: human lung cancer strain NCI-H441;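 note: cell proliferation inhibition after four days measured by CellTiter-Glo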

Chain of GDP-bound NRAS wild-type protein (P01111 whole entry): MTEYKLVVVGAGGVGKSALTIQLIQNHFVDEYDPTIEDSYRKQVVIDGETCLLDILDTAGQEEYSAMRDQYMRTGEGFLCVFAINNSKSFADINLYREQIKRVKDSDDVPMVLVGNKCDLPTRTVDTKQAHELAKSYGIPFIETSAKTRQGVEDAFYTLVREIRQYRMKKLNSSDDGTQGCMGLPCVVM
Chain of GDP-bound HRAS wild-type protein (P01112 whole entry): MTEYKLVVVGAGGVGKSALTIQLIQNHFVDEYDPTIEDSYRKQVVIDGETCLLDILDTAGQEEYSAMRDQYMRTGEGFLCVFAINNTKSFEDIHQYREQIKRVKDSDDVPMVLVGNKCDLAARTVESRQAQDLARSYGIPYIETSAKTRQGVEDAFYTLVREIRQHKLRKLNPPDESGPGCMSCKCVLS

Row | IC50 [3] | Compound | NRAS/KRAS (ratio of KD value for NRAS to KD value for KRAS) [1] | HRAS/KRAS (ratio of KD value for HRAS to KD value for KRAS) [2] | NRAS/KRAS (ratio of KD value with respect to NRAS to KD value with respect to KRAS) [1] | HRAS/KRAS (ratio of KD value with respect to HRAS to KD value with respect to KRAS) [2]
1 | 58.1 nM | CCCN1C(=O)CN(C)C(=O)[C@@H]2CCN2C(=O)[C@H]([C@@H](C)CC)NC(=O)[C@H](CC(C)C)N(C)C(=O)C[C@@H](C(=O)N2CCOCC2)N(C)C(=O)[C@H](C2CCCC2)N(C)C(=O)C2(CCC2)NC(=O)[C@@H]2CCCN2C(=O)[C@H](CCc2ccc(C(F)(F)F)c(Cl)c2)NC(=O)CN(C)C(=O)[C@@H]1Cc1ccc(C(F)(F)F)cc1 [PP0402] ([NMeL]I[Aze][Sar][NPrPhe(4-CF3)][Sar][hPhe(3-Cl-4-CF3)]P[Ac4c][NMeGly(cPent)][NMeD]-Morpholide; lactam N-11) | B (a compound having 3 or more and less than 10 is denoted as B) | C (A compound having a KD ratio of 0.1 or more and less than 3 is denoted as C) |  | 
2 | 21.7 nM | CCCN1C(=O)CN(C)C(=O)[C@@H]2CCN2C(=O)[C@H]([C@@H](C)CC)NC(=O)[C@H](CC(C)C)N(C)C(=O)C[C@@H](C(=O)N2CCOCC2)N(C)C(=O)[C@H](C2CCCC2)N(C)C(=O)C2(CCC2)NC(=O)[C@@H]2CC(F)(F)CN2C(=O)[C@H](CCc2ccc(C(F)(F)F)c(Cl)c2)NC(=O)CN(C)C(=O)[C@@H]1Cc1ccc(C(F)(F)F)cc1 [PP0404] ([NMeL]I[Aze][Sar][NPrPhe(4-CF3)][Sar][hPhe(3-Cl-4-CF3)][Pro(4,4-F2)][Ac4c][NMeGly(cPent)][NMeD]-Morpholide; lactam N-11) | B (a compound having 3 or more and less than 10 is denoted as B) | C (A compound having a KD ratio of 0.1 or more and less than 3 is denoted as C) |  | 
3 | 12.4 nM | CCCN1C(=O)CN(C)C(=O)[C@@H]2CCN2C(=O)[C@H]([C@@H](C)CC)NC(=O)[C@H](CC(C)C)N(C)C(=O)C[C@@H](C(=O)N(C)C)N(C)C(=O)[C@H](C2CCCC2)N(C)C(=O)C2(CCCC2)NC(=O)[C@@H]2CCCN2C(=O)[C@H](CCc2ccc(C(F)(F)F)c(Cl)c2)NC(=O)CN(C)C(=O)[C@@H]1Cc1ccc(C(F)(F)F)cc1 [PP0429] ([NMeL]I[Aze][Sar][NPrPhe(4-CF3)][Sar][hPhe(3-Cl-4-CF3)]P[Ac5c][NMeGly(cPent)][NMeD]-NMe2; lactam N-11) |  |  | B (a compound having 3 or more and less than 10 is denoted as B) | C (A compound having a KD ratio of 0.1 or more and less than 3 is denoted as C)
4 | 9.9 nM | CCCN1C(=O)CN(C)C(=O)[C@@H]2CCN2C(=O)[C@H]([C@@H](C)CC)NC(=O)[C@H](CC(C)C)N(C)C(=O)C[C@@H](C(=O)N(C)C)N(C)C(=O)[C@H](C2CCCC2)N(C)C(=O)C2(CCCC2)NC(=O)[C@@H]2CC(F)(F)CN2C(=O)[C@H](CCc2ccc(C(F)(F)F)c(Cl)c2)NC(=O)CN(C)C(=O)[C@@H]1Cc1ccc(C(F)(F)F)cc1 [PP0431] ([NMeL]I[Aze][Sar][NPrPhe(4-CF3)][Sar][hPhe(3-Cl-4-CF3)][Pro(4,4-F2)][Ac5c][NMeGly(cPent)][NMeD]-NMe2; lactam N-11) |  |  | B (a compound having 3 or more and less than 10 is denoted as B) | C (A compound having a KD ratio of 0.1 or more and less than 3 is denoted as C)
5 | 10.7 nM | CCCN1C(=O)CN(C)C(=O)[C@@H]2CCN2C(=O)[C@H]([C@@H](C)CC)NC(=O)[C@H](CC(C)C)N(C)C(=O)C[C@@H](C(=O)N(C)C)N(C)C(=O)[C@H](C2CCCC2)N(C)C(=O)C2(CCC2)NC(=O)[C@@H]2CC(F)(F)CN2C(=O)[C@H](CCc2ccc(C(F)(F)F)c(Cl)c2)NC(=O)CN(C)C(=O)[C@@H]1Cc1ccc(C(F)(F)F)cc1 [PP0432] ([NMeL]I[Aze][Sar][NPrPhe(4-CF3)][Sar][hPhe(3-Cl-4-CF3)][Pro(4,4-F2)][Ac4c][NMeGly(cPent)][NMeD]-NMe2; lactam N-11) |  |  | B (a compound having 3 or more and less than 10 is denoted as B) | B (a compound having 3 or more and less than 10 is denoted as B)
6 | 34.1 nM | CCCN1C(=O)CN(C)C(=O)[C@@H]2CCN2C(=O)[C@H]([C@@H](C)CC)NC(=O)[C@H](CC(C)C)N(C)C(=O)C[C@@H](C(=O)N2CCOCC2)N(C)C(=O)[C@H](C2CCCC2)N(C)C(=O)C2(CCCC2)NC(=O)[C@@H]2CC(C)(C)CN2C(=O)[C@H](CCc2ccc(C(F)(F)F)c(Cl)c2)NC(=O)CN(C)C(=O)[C@@H]1Cc1ccc(C(F)(F)F)cc1 [PP0452] ([NMeL]I[Aze][Sar][NPrPhe(4-CF3)][Sar][hPhe(3-Cl-4-CF3)][Pro(4,4-Me2)][Ac5c][NMeGly(cPent)][NMeD]-Morpholide; lactam N-11) |  |  | B (a compound having 3 or more and less than 10 is denoted as B) | B (a compound having 3 or more and less than 10 is denoted as B)
7 | 20.3 nM | CCCN1C(=O)CN(C)C(=O)[C@@H]2CCN2C(=O)[C@H]([C@@H](C)CC)NC(=O)[C@H](CC(C)C)N(C)C(=O)C[C@@H](C(=O)N2CCOCC2)N(C)C(=O)[C@H](C2CCCC2)N(C)C(=O)C2(CCCC2)NC(=O)[C@@H]2C[C@H](C)CN2C(=O)[C@H](CCc2ccc(C(F)(F)F)c(Cl)c2)NC(=O)CN(C)C(=O)[C@@H]1Cc1ccc(C(F)(F)F)cc1 [PP0453] ([NMeL]I[Aze][Sar][NPrPhe(4-CF3)][Sar][hPhe(3-Cl-4-CF3)][Pro(4S-Me)][Ac5c][NMeGly(cPent)][NMeD]-Morpholide; lactam N-11) |  |  | B (a compound having 3 or more and less than 10 is denoted as B) | C (A compound having a KD ratio of 0.1 or more and less than 3 is denoted as C)
8 | 5.4 nM | CC[C@H](C)[C@@H]1NC(=O)[C@H](CC(C)C)N(C)C(=O)C[C@@H](C(=O)N2CCOCC2)N(C)C(=O)[C@H](C2CCCC2)N(C)C(=O)C2(CCCC2)NC(=O)[C@@H]2CCCN2C(=O)[C@H](CCc2ccc(C(F)(F)F)c(Cl)c2)NC(=O)CN(C)C(=O)[C@H](Cc2ccc(C)cc2)N2CC=CC[C@@H](C2=O)N(C)C(=O)CN(C)C1=O [PP0460] |  |  | C (A compound having a KD ratio of 0.1 or more and less than 3 is denoted as C) | C (A compound having a KD ratio of 0.1 or more and less than 3 is denoted as C)
9 | 21.8 nM | CC[C@H](C)[C@@H]1NC(=O)[C@H](CC(C)C)N(C)C(=O)C[C@@H](C(=O)N2CCOCC2)N(C)C(=O)[C@H](C2CCCC2)N(C)C(=O)C2(CCCC2)NC(=O)[C@@H]2CCCN2C(=O)[C@H](CCc2ccc(C(F)(F)F)c(Cl)c2)NC(=O)CN(C)C(=O)[C@H](Cc2ccccc2)N2CC=CC[C@@H](C2=O)N(C)C(=O)CN(C)C1=O [PP0528] |  |  | C (A compound having a KD ratio of 0.1 or more and less than 3 is denoted as C) | C (A compound having a KD ratio of 0.1 or more and less than 3 is denoted as C)
10 | 6.5 nM | CC[C@H](C)[C@@H]1NC(=O)[C@H](CC(C)C)N(C)C(=O)C[C@@H](C(=O)N2CCOCC2)N(C)C(=O)[C@H](C2CCCC2)N(C)C(=O)C2(CCCC2)NC(=O)[C@@H]2CCCN2C(=O)[C@H](CCc2ccc(C(F)(F)F)c(Cl)c2)NC(=O)CN(C)C(=O)[C@H](Cc2ccccc2)N2CCCC[C@@H](C2=O)N(C)C(=O)CN(C)C1=O [PP0529] |  |  | C (A compound having a KD ratio of 0.1 or more and less than 3 is denoted as C) | B (a compound having 3 or more and less than 10 is denoted as B)
11 | 7 nM | CC[C@H](C)[C@@H]1NC(=O)[C@H](CC(C)C)N(C)C(=O)C[C@@H](C(=O)N2CCOCC2)N(C)C(=O)[C@H](C2CCCC2)N(C)C(=O)C2(CCCC2)NC(=O)[C@@H]2CCCN2C(=O)[C@H](CCc2ccc(C(F)(F)F)c(Cl)c2)NC(=O)CN(C)C(=O)[C@H](Cc2ccc(F)cc2)N2CCCC[C@@H](C2=O)N(C)C(=O)CN(C)C1=O [PP0530] |  |  | C (A compound having a KD ratio of 0.1 or more and less than 3 is denoted as C) | B (a compound having 3 or more and less than 10 is denoted as B)
12 | 6.9 nM | CC[C@H](C)[C@@H]1NC(=O)[C@H](CC(C)C)N(C)C(=O)C[C@@H](C(=O)N2CCOCC2)N(C)C(=O)[C@H](C2CCCC2)N(C)C(=O)C2(CCCC2)NC(=O)[C@@H]2CCCN2C(=O)[C@H](CCc2ccc(C(F)(F)F)c(Cl)c2)NC(=O)CN(C)C(=O)[C@H](Cc2ccc(Cl)cc2)N2CCCC[C@@H](C2=O)N(C)C(=O)CN(C)C1=O [PP0532] |  |  | C (A compound having a KD ratio of 0.1 or more and less than 3 is denoted as C) | B (a compound having 3 or more and less than 10 is denoted as B)
13 | 83.3 nM | CC[C@H](C)[C@@H]1NC(=O)[C@H](CC(C)C)N(C)C(=O)C[C@@H](C(=O)N2CCOCC2)NC(=O)[C@H](C2CCCC2)N(C)C(=O)C2(CCCC2)NC(=O)[C@@H]2CCCN2C(=O)[C@H](CCc2cc(F)c(C(F)(F)F)c(F)c2)NC(=O)CN(C)C(=O)[C@H](Cc2ccc(C(F)(F)F)cc2)N2CCCC[C@@H](C2=O)N(C)C(=O)CN(C)C1=O [PP0541] |  |  | B (a compound having 3 or more and less than 10 is denoted as B) | B (a compound having 3 or more and less than 10 is denoted as B)
14 | 119 nM | CC[C@H](C)[C@@H]1NC(=O)[C@H](CC(C)C)N(C)C(=O)C[C@@H](C(=O)N2CCOCC2)N(C)C(=O)[C@H](C2CCCC2)N(C)C(=O)C2(CCCC2)NC(=O)[C@@H]2CCCN2C(=O)[C@H](CCc2ccc(C(F)(F)F)c(Cl)c2)NC(=O)CN(C)C(=O)[C@H](Cc2ccc(F)cc2)N2C/C=C\CC[C@@H](C2=O)N(C)C(=O)CN(C)C1=O [PP0607] |  |  | C (A compound having a KD ratio of 0.1 or more and less than 3 is denoted as C) | B (a compound having 3 or more and less than 10 is denoted as B)
